Data: ChEMBL document CHEMBL1140250, “6-Aryl-4-methylsulfanyl-2H-pyran-2-one-3-carbonitriles as PPAR-gamma activators” (Bioorg Med Chem Lett, 2005)

Legend:
Type in all cases: functional
[1] = target: T1, Peroxisome proliferator-activated receptor gamma (Homo sapiens) (UniProt P37231); assay: In vitro agonist activity against human PPAR-gamma in transactivation assay at 100 nM
T1 sequence (whole entry): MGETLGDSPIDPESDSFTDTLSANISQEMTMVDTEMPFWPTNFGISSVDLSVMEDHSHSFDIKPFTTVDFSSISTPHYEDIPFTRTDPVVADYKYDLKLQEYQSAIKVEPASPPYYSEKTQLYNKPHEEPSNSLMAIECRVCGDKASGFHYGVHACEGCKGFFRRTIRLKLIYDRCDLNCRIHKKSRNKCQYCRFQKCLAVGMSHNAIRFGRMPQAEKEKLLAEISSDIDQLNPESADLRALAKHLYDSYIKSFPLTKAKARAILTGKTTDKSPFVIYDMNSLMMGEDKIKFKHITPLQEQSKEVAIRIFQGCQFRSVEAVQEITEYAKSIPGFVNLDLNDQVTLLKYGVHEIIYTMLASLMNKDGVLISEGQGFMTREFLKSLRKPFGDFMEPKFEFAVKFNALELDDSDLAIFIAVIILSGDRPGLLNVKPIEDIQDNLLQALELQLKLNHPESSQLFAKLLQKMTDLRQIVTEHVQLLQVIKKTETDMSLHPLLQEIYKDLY

[2] = target: T1, Peroxisome proliferator-activated receptor gamma (Homo sapiens); assay: In vitro agonist activity against human PPAR-gamma in transactivation assay at 10 nM
[3] = target: T1, Peroxisome proliferator-activated receptor gamma (Homo sapiens); assay: In vitro agonist activity against human PPAR-gamma receptor in transactivation assay at 1000 nM

Structure (SMILES)	Fold activation [1]	Fold activation [2]	Fold activation [3]
CSc1cc(-c2ccc(OCCN(C)C)cc2)oc(=O)c1C#N	6	4	7
CSc1cc(-c2ccc(OCN3CCOCC3)cc2)oc(=O)c1C#N	4	3	5
CSc1cc(-c2ccc(OCCN3CCCCC3)cc2)oc(=O)c1C#N	2	3	16
CSc1cc(-c2ccc(OCCN(Cc3ccccc3)SC)cc2)oc(=O)c1C#N	6	4	7
CSc1cc(-c2ccc(OCCSc3ccccc3)cc2)oc(=O)c1C#N	5	3	14
CN(CCOc1ccc(CC2SC(=O)NC2=O)cc1)c1ccccn1 (centres undefined)	28	9	176
CSc1cc(-c2ccc(OCCc3nccc4c3CCCC4)cc2)oc(=O)c1C#N	5	4	19

Second part, the compound after the results:

Fold activation [1]	Fold activation [2]	Fold activation [3]	Structure (SMILES)
3	3	17	COC(=O)c1c(SC)cc(-c2ccc(OCCN3CCCCC3)cc2)oc1=O
4	5	7	CSc1cc(-c2ccc(OCCN(C)Cc3ccccc3)cc2)oc(=O)c1C#N
14	9	27	C[S+]([O-])CCOc1ccc(-c2cc([S+](C)[O-])c(C#N)c(=O)o2)cc1 (centres undefined)
11	7	30	CCSCCOc1ccc(-c2cc(SCC)c(C#N)c(=O)o2)cc1
22	12	60	CSCCOc1ccc(-c2cc(SC)c(C#N)c(=O)o2)cc1
13	9	44	COC(=O)c1c(SC)cc(-c2ccc(OCCSC)cc2)oc1=O
